Measurements: patent US4218436A, “Compounds and methods” (The Upjohn Company, priority 1979, dated 1980)

How the values were obtained:
[1] = system: antiserum raised against 9-deoxy-9-methylene PGF2 (KLH Conjugate); test: RIA cross-reactivity, displacement of [^3 H] PGE2 from antiserum (KLH Conjugate); format: binding, rabbit; conditions: relative to PGE2; ng. required to displace 50% of [^3 H] PGE2
Method: (§1) Five milligrams of KLH-PGE2 mimic conjugate is added to 2.25 ml. of sterile saline (0.9%) and 2.25 ml. of Freund's complete adjuvant and blended. 1.0 ml. of this mixture is injected subcutaneously at 20-30 sites on the flanks of four Albino New Zealand rabbits of 2-4 kg. mass. Each rabbit receives a dose of about 1 mg. On the same day, 1.0 ml. of attenuated pertussis vaccine is injected intramuscularly at four sites on the hindquarters of each rabbit.
(§2) A known amount of PGE-type compound in 0.1 ml. PBSG buffer at pH 7.4±0.2 and 0.1 ml. of the radiolabeled form of the same PGE-type compound (10,000 cpm/0.1 ml. PBSG) are introduced into a 12×75 mm. polypropylene tube. Antiserum (0.1 ml.) against the corresponding mimic is added at a dilution which will bind 50%±3% of the radiolabeled authentic PGE-type compound in the absence of competition from the unlabeled PGE-type compound. The tube is incubated for 1 hour at 25° and then 12-16 hours at 4°. Antibody bound and free fractions are separated with dextran-coated charcoal. Other separation techniques are acceptable.
(§3) The data below show the cross-reactivity of antiserum raised against 9-deoxy-9-methylene PGF2 to various PGE-type compounds, relative to PGE2. Percent crossreaction is defined as (ng. of PGE2 required to displace 50% of [^3 H] PGE2)/(ng. heterologous PG required to displace 50% of [^3 H] PGE2)×100.

[2] = system: antiserum raised against 9-deoxy-9-methylene PGF2 (BSA Conjugate); test: RIA cross-reactivity, displacement of [^3 H] PGE2 from antiserum (BSA Conjugate); format: binding, rabbit; conditions: relative to PGE2; ng. required to displace 50% of [^3 H] PGE2
Method: as §1, §2, §3

CCCCC[C@H](O)/C=C/[C@@H]1[C@@H](CCCCCCC(=O)O)[C@@H](O)C[C@H]1O [PGF1 α]
% Cross-Reaction KLH Conjugate [1]: 0.09%
% Cross-Reaction BSA Conjugate [2]: 2.9%
